{"source": "patent US11040052B2", "about": "“Methods and pharmaceutical compositions for modulating autophagy in a subject in need thereof” (INSERM (INSTITUT NATIONAL DE LA SANTE ET DE LA RECHERCHE …, priority 2013, dated 2021)", "key": {"[1]": {"tested_on": "CD4+CD25+Foxp3+ Tregs in tumor bed", "assay": "Detection of tumor-infiltrated Tregs (flow cytometry)", "type": "in vivo, mice", "conditions": "compared with MTX group", "description": "Tumors were digested using Miltenyi Biotec tumor digestion kit according to manufacturer's protocol. Single cells were resuspended in RPMI 1640 and sequentially passed through 100 μm and 70 μM nylon cell strainers (BD Biosciences). Leukocytes were purified using Miltenyi Biotec magnetic beads conjugated to monoclonal anti-mouse CD45 (clone 30F11.1) according to the supplier's recommendations. Prior to staining of TIL populations for flow cytometry analysis, samples were incubated with LIVE/DEAD® Fixable Yellow Dead Cell dyes (Invitrogen) to discriminate viable cells from damaged cells. TILs were incubated with antibodies against CD16/CD32 before staining with fluorescent-labeled antibodies targeting T-cell surface markers. Then, cells were permeabilized and fixed with eBioscience Foxp3/Transcription Factor Staining Buffer Set and stained for intracellular Foxp3. Data were acquired using a MACSQuant flow cytometer (Miltenyi Biotec) and analyzed with FlowJo v. X PC software (Treestar, Oreg., USA). Tregs were defined as CD3+ CD4+ CD8− CD25+ Foxp3+ T-cell population."}, "[2]": {"tested_on": "MCA205 cells", "assay": "Labeling of vesicular ATP in vitro (quinacrine/PI)", "type": "cell-based, murine", "conditions": "compared to MTX alone", "description": "MCA205 cells were loaded with […] quinacrine in Krebs-Ringer solution (125 mM NaCl, 5 mM KCl, 1 mM MgSO4, 0.7 mM KH2PO4, 2 mM CaCl2), 6 mM glucose and 25 mM HEPES buffer, pH 7.4) for 30 min at 37 1C. Thereafter, cells were co-stained for 10 min with […] propidium iodide (PI) and […] Hoechst 33342 (both from Molecular Probes-Life Technologies), rinsed with Krebs-Ringer solution and analyzed by automated fluorescence microscopy."}}, "note": "Entries after “also recorded” stand apart in the source; their conditions may differ."}
{"smiles": "O=C(O)CC(O)(C(=O)O)C(O)C(=O)O", "note": "(centres unmarked) [HC, hydroxycitrate]", "values": [{"measurement": "Foxp3+ Tregs in tumor bed, combined with MTX", "setting": "[1]", "value": "reduces Treg infiltration in tumor bed; also recorded: particularly efficient in reducing the frequency of Foxp3^+ Tregs in tumors"}, {"measurement": "ATP release in vitro, combined with MTX", "setting": "[2]", "value": "marked increase in ATP release; also recorded: particularly efficient in inducing the autophagy-dependent release of ATP"}]}
